Laboratory results taken from PubChem BioAssay (NCI).
Where “and” joins values, the source holds several entries; their conditions need not be identical. Identical values can stand only once.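 Step 1: Grow cells in 96-well plates. Step 2: Expose to compound for 48 hours at 5 concentrations. Step 3: Interpolate endpoints linearly; if unreached, use highest concentration. The concentration for 50% growth inhibition is given as GI50. TGI: concentration producing complete growth inhibition.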

How the values were obtained:
Test in all cases: growth of human tumour cells (NCI), 48 h
[1] = system: HS 578T breast
[2] = system: DU-145 prostate
[3] = system: PC-3 prostate
[4] = system: T-47D breast
[5] = system: XF 498 CNS
[6] = system: DMS 114 small cell lung
[7] = system: DMS 273 small cell lung
[8] = system: MDA-N
[9] = system: RXF-631 renal

COc1cccc(C(=O)Nc2ccc(CN3CCc4nc5cc(OC)c(OC)cc5cc43)cc2)c1
GI50 [1]: 3.87 µM
TGI [1]: 34 µM
GI50 [2]: 4.55 µM
TGI [2]: 67.9 µM
GI50 [3]: 3.14 µM
TGI [3]: > 100 µM
GI50 [4]: 4.49 µM
TGI [4]: 53.7 µM

CN(C)c1ccc2c(c1)CN1C(=O)c3ccccc3C1=N2
GI50 [5]: > 100 µM
TGI [5]: > 100 µM
GI50 [6]: > 100 µM
TGI [6]: > 100 µM
GI50 [7]: > 100 µM
TGI [7]: > 100 µM

CC1(C)C(c2ccccc2)=NN(O)c2ccccc21
TGI [7]: > 100 µM

CCOC(=O)c1cc(/C=C/C(C)=C/C(=O)OC)oc1-c1ccccc1
TGI [5]: > 100 µM
TGI [6]: > 100 µM
TGI [7]: > 100 µM

CCOC(=O)C1=C(C)NC2SC(=O)/C(=C\c3ccccc3Cl)N2C1c1ccccc1 (stereo not drawn)
GI50 [1]: > 100 µM
TGI [1]: > 100 µM
GI50 [2]: > 100 µM
TGI [2]: > 100 µM
GI50 [3]: 73.3 µM
TGI [3]: > 100 µM
GI50 [4]: 33.8 µM
TGI [4]: > 100 µM

O=[N+]([O-])c1cc([N+](=O)[O-])c(Cl)c(Cl)c1Cl
GI50 [1]: 2.26 µM
TGI [1]: 5.31 µM
GI50 [2]: 1.57 µM
TGI [2]: 2.98 µM
GI50 [4]: 0.631 µM
TGI [4]: 2.84 µM

COc1cc2ccccc2c2cc([N+](=O)[O-])oc12
TGI [1]: 10.1 µM
TGI [2]: 7.49 µM
TGI [3]: > 100 µM
TGI [4]: > 45.6 µM
TGI [8]: 0.849 µM

COC(=O)CCC(C)[C@H]1CCC2C3C(C[C@H](OC(C)=O)[C@@]21C)[C@@]1(C)CCC2(C[C@H]1C[C@H]3OC(C)=O)OOC1(CCC(C)CC1)OO2 (stereo partly drawn)
GI50 [1]: 2.01 µM and 9.68 µM
TGI [1]: 41.6 µM and 70.7 µM
GI50 [2]: > 100 µM and 27.8 µM
TGI [2]: > 100 µM
GI50 [3]: 2.98 µM and 7.43 µM
TGI [3]: > 100 µM
TGI [4]: > 100 µM
TGI [8]: > 100 µM

Cc1onc(-c2c(F)cccc2Cl)c1-c1ncc(-c2ccc(Cl)cc2)o1
GI50 [1]: 14.1 µM
TGI [1]: > 100 µM
GI50 [2]: 14.6 µM
TGI [2]: > 100 µM
GI50 [3]: 4.21 µM
TGI [3]: > 100 µM
GI50 [4]: 3.48 µM
TGI [4]: > 100 µM

CCC1=C(C)/C(=C/c2[nH]c(C(Br)Br)c(CC)c2C)N=C1C(Br)Br
TGI [6]: 88.6 µM

C=CCC1C(=O)C(C(=O)OC)N2CCc3c([nH]c4ccccc34)C12 (stereo not drawn)
TGI [6]: > 100 µM

Cc1cc(=O)oc2c(CN3CCCCC3)c(O)ccc12
TGI [1]: > 100 µM
TGI [2]: > 100 µM
TGI [3]: > 100 µM
TGI [4]: > 100 µM
TGI [8]: > 100 µM

CN1C(OCc2ccccc2)c2c(ccc3c2OCO3)C2C=Cc3cc4c(cc3C21)OCO4 (stereo not drawn)
TGI [9]: 2090 nM
TGI [6]: 0.854 µM

COc1ccc(-c2nn(-c3ccc(NC(=O)c4ccc(Cl)c(C(F)(F)F)c4)cc3)cc2-c2ccncc2)cc1Cl
GI50 [1]: 0.201 µM
TGI [1]: 0.696 µM
GI50 [2]: 4.6 µM
TGI [2]: > 100 µM
GI50 [3]: 0.669 µM
TGI [3]: > 100 µM
GI50 [4]: 3.78 µM
TGI [4]: > 100 µM

O=c1oc2cc(N=Cc3ccccc3Cl)ccc2c2ccccc12
TGI [1]: > 100 µM
TGI [2]: > 100 µM
TGI [3]: > 100 µM
TGI [4]: > 100 µM
TGI [8]: > 100 µM

O=S(=O)(Nc1cc(Br)c(O)c2ccccc12)c1ccc(F)cc1
GI50 [1]: 2.75 µM
TGI [1]: 9.98 µM
GI50 [2]: 1.83 µM
TGI [2]: 3.32 µM
GI50 [3]: 2.93 µM
TGI [3]: 12.9 µM
GI50 [4]: 2.58 µM
TGI [4]: 8.5 µM

Cc1cc(N2CCN(C)CC2)nc(NCc2cc(Nc3ccnc4cc(Cl)ccc34)ccc2F)n1
GI50 [1]: 2.82 µM
TGI [1]: 7.97 µM
GI50 [2]: 2.52 µM
TGI [2]: > 100 µM
GI50 [3]: 3.51 µM
TGI [3]: > 100 µM
GI50 [4]: 1.09 µM
TGI [4]: 3.62 µM

COc1ccc(C[n+]2c3ccccc3n3c4ccc(N)cc4ccc32)c(OC)c1OC
GI50 [1]: 5.81 µM
TGI [1]: 35.2 µM
GI50 [2]: 6.42 µM
TGI [2]: 78.1 µM
GI50 [3]: 1.82 µM
TGI [3]: 13.7 µM
GI50 [4]: 1.42 µM
TGI [4]: 7.03 µM

N#CC(C#N)=Cc1c(-c2ccccc2)[nH]c2ccccc12
GI50 [1]: 2.31 µM
TGI [1]: 8.49 µM
GI50 [2]: 3.2 µM
TGI [2]: 17.9 µM
GI50 [3]: 2.9 µM
TGI [3]: > 70.8 µM
GI50 [4]: 4.23 µM
TGI [4]: > 95.1 µM

N=Nc1c(OC(=O)Nc2ccccc2)[nH]c2ccccc12
TGI [1]: > 100 µM
TGI [2]: 22.7 µM
TGI [3]: 34.4 µM
TGI [4]: 37.7 µM
TGI [8]: 61.8 µM

[C-]#[O+].[Cl][Sn]([Cl])[Cl].[Cl][Sn]([Cl])[Cl].[Pt].c1ccc([PH+](c2ccccc2)c2ccccc2)cc1.c1ccc([PH+](c2ccccc2)c2ccccc2)cc1
GI50 [6]: 21.8 µM
TGI [6]: 51.2 µM
GI50 [7]: 46.1 µM
TGI [7]: > 100 µM

COc1cc(-c2nn(-c3ccc(NC(=O)Nc4ccc(Cl)c(Cl)c4)cc3)cc2-c2ccncc2)ccc1Cl
GI50 [1]: 3.22 µM
TGI [1]: 11.9 µM
GI50 [2]: 4.33 µM
TGI [2]: 69.7 µM
GI50 [3]: 2.89 µM
TGI [3]: > 100 µM
GI50 [4]: 3.02 µM
TGI [4]: 54.6 µM

Oc1c(C(Nc2cccc3ccccc23)c2ccccc2)ccc2cccnc12 (stereo not drawn)
GI50 [1]: 7.37 µM
TGI [1]: > 100 µM
GI50 [2]: 7.22 µM
TGI [2]: > 100 µM
GI50 [3]: 5.16 µM
TGI [3]: > 100 µM
GI50 [4]: 4.75 µM
TGI [4]: 58.3 µM

CCNC(C)(C)C(SS)c1ccc(Br)cc1 (stereo not drawn)
TGI [1]: > 100 µM
TGI [2]: > 100 µM
TGI [3]: > 100 µM
TGI [4]: 93.6 µM
TGI [8]: > 100 µM

CNC(=S)N/N=C1\CC(c2ccccc2)Oc2ccccc21 (stereo not drawn)
TGI [7]: > 100 µM

CN(Cc1cnc(N)nc1N)c1ccc(C(=O)O)cc1
GI50 [1]: > 100 µM
TGI [1]: > 100 µM
GI50 [2]: > 100 µM
TGI [2]: > 100 µM
GI50 [3]: > 100 µM
TGI [3]: > 100 µM
GI50 [4]: > 100 µM
TGI [4]: > 100 µM

COc1cc(/C=N/Nc2ncnc3c2cnn3C(C)C)ccc1O
GI50 [1]: 5.04 µM
TGI [1]: 24.8 µM
GI50 [2]: 8.03 µM
TGI [2]: > 25 µM
GI50 [3]: 5.07 µM
TGI [3]: > 25 µM
GI50 [4]: 5.31 µM
TGI [4]: > 21.5 µM

NC1=NC(c2ccc(Cl)cc2)N(c2ccc(S(=O)(=O)Nc3ncccn3)cc2)C(N)=N1 (stereo not drawn)
TGI [1]: > 100 µM
TGI [2]: > 100 µM
TGI [3]: > 100 µM
TGI [4]: > 100 µM
TGI [8]: > 100 µM

Clc1ccccc1C(n1ncc2ccccc21)n1ncc2ccccc21
TGI [5]: > 100 µM
TGI [6]: > 100 µM
TGI [7]: > 100 µM

[N-]=[N+]=Nc1ccc(CCN2CCN(c3cccc(C(F)(F)F)c3)CC2)cc1I
TGI [7]: > 100 µM
